Experiment [1] concerns the target T1, BRD4 bromo domain 2 [BRD4(2)] (Homo sapiens, UniProt O60885).
T1 construct: N-terminally His6-tagged BRD4(2) (amino acids 357-445); made in house; host or cells: E. coli
Nature of the experiment: BRD4(2)/acetylated peptide H4 TR-FRET binding assay. The conditions noted are these: His6-BRD4(2) (aa 357-445) vs acetylated histone H4 peptide. An excerpt: To assess the BRD4(2) binding strength of the substances described in this application, the ability thereof to inhibit the interaction between BRD4(2) and acetylated histone H4 in a dose-dependent manner was quantified.
For this purpose, a time-resolved fluorescence resonance energy transfer (TR-FRET) assay was used, which measures the binding between N-terminally His6-tagged BRD4(2) (amino acids 357-445) and a synthetic acetylated histone H4 (Ac-H4) peptide with sequence SGRGK(Ac)GGK(Ac)GLGK(Ac)GGAK(Ac)RHRKVLRDNGSGSK-biotin. The recombinant BRD4(2) protein produced in-house according to Filippakopoulos et al., Cell, 2012, 149:214-231 was expressed in E. coli and purified by means of (Ni-NTA) affinity and (Sephadex G-75) size exclusion chromatography. The Ac-H4 peptide can be purchased, for example, from Biosyntan (Berlin, Germany).
In the assay, typically 11 different concentrations of each substance (0.1 nM, 0.33 nM, 1.1 nM, 3.8 nM, 13 nM, 44 nM, 0.15 μM, 0.51 μM, 1.7 μM, 5.9 μM and 20 μM) were analysed as duplicates on the same microtitre plate. For this purpose, 100-fold concentrated solutions in DMSO were prepared by serial dilutions (1:3.4) of a 2 mM stock solution into a clear, 384-well microtitre plate (Greiner Bio-One, Frickenhausen, Germany). From this, 50 nl were transferred into a black test plate (Greiner Bio-One, Frickenhausen, Germany). The test was started by the addition of 2 μl of a 2.5-fold concentrated BRD4(2) solution (final concentration typically 100 nM in the 5 μl of reaction volume) in aqueous assay buffer [50 mM HEPES pH 7.5, 50 mM sodium chloride (NaCl); 50 mM potassium fluoride (KF); 0.25 mM CHAPS and 0.05% serum albumin (BSA)] to the substances in the test plate. This was followed by a 10-minute incubation step at 22° C. for the pre-equilibration of putative complexes between BRD4(2) and the substances.
The mixture was then incubated in the dark at 22° C. for one hour and then at 4° C. for at least 3 hours and for no longer than overnight. The formation of BRD4(2)/Ac-H4 complexes was determined by the measurement of the resonance energy transfer from the streptavidin-Eu chelate to the anti-6His-XL665 antibody present in the reaction. For this purpose, the fluorescence emission was measured at 620 nm and 665 nm after excitation at 330-350 nm in a TR-FRET measuring instrument, for example a Rubystar or Pherastar (both from BMG Lab Technologies, Offenburg, Germany) or a Viewlux (Perkin-Elmer). The ratio of the emissions at 665 nm and at 622 nm was taken as an indicator of the amount of BRD4(2)/Ac-H4 complexes formed.
The data (ratios) obtained were normalized, with 0% inhibition corresponding to the mean from the measurements for a set of controls (typically 32 data points) in which all the reagents were present. In these, in place of test substances, 50 nl of DMSO (100%) were used. Inhibition of 100% corresponded to the mean from the measurements for a set of controls (typically 32 data points) in which all the reagents except BRD4(2) were present. The IC50 was determined by regression analysis based on a 4-parameter equation (minimum, maximum, IC50, Hill; Y=Max+(Min−Max)/(1+(X/IC50)Hill)).

Another experiment relates to B16F10 cells. The experiment can be described thus: Cell proliferation assay B16F10 (alamarBlue). In kind it is cell-based. The conditions noted are these: Mus musculus, B16-F10, melanoma (BRAF wild-type) cells, 96 hours. How it is done:
(§1) In accordance with the invention, the ability of the substances to inhibit cell proliferation was determined. Cell viability was determined by means of the alamarBlue® reagent (Invitrogen) in a Victor X3 Multilabel Reader (Perkin Elmer). The excitation wavelength was 530 nm and the emission wavelength […].
The B16F10 cells (ATCC, CRL-6475) were seeded at a concentration of 300-500 cells/well in 100 μl of growth medium (DMEM with phenol red, 10% FCS) on 96-well microtitre plates.
(§2) After overnight incubation at 37° C., the fluorescence values (CI values) were determined. Then the plates were treated with various substance dilutions (1E-5 M, 3E-6 M, 1E-6 M, 3E-7 M, 1E-7 M, 3E-8 M, 1E-8 M) and incubated at 37° C. over 96 hours (MOLM-13, B16F10, CHL-1 cells) or 120 hours (MOLP-8 cells). Subsequently, the fluorescence values were determined (CO values). For the data analysis, the CI values were subtracted from the CO values and the results were compared between cells which had been treated with various dilutions of the substance or only with buffer solution. The IC50 values (substance concentration needed for 50% inhibition of cell proliferation) were calculated therefrom.
(§3) The substances were tested in the cell lines in Table 2, which represent the indications specified by way of example: […]

In a further experiment the test system is CHL-1 cells. Nature of the experiment: Cell proliferation assay CHL-1 (alamarBlue). The conditions noted are these: Homo sapiens, melanoma (BRAF wild-type) cells, 96 hours. Type of experiment: cell-based. How it is done: as §1
The CHL-1 cells (ATCC, CRL-9446) were seeded at a concentration of 1000 cells/well in 100 μl of growth medium (DMEM with glutamine, 10% FCS) on 96-well microtitre plates.
as §2, §3

For the compound `CCOC(=O)N=S(C)(=O)c1cccc(Nc2ccc3c(n2)N(C2CCOCC2)[C@H](C)C(=O)N3C)c1` (mixture of isomers) [Example 10, Ethyl [(3-{[(3R)-1,3-dimethyl-2-oxo-4-(tetrahydro-2H-pyran-4-yl)-1,2,3,4-tetrahydropyrido[2,3-b]pyrazin-6-yl]amino}phenyl)(methyl)oxido-λ^6-sulphanylidene]carbamate], the IC50 came out at 6120 nM in experiment [1], 304 nM in the experiment with B16F10 cells and 196 nM in the experiment on CHL-1 cells.

Turning to `C[C@@H]1C(=O)N(C)c2ccc(Nc3cccc(S(C)(=O)=O)c3)nc2N1C1CCOCC1` [Example 1, (3R)-1,3-Dimethyl-6-{[3-(methylsulphonyl)phenyl]amino}-4-(tetrahydro-2H-pyran-4-yl)-3,4-dihydropyrido[2,3-b]pyrazin-2(1H)-one], the IC50 in experiment [1] stood at 121 nM; with B16F10 cells it was 285 nM; in the experiment with CHL-1 cells it was 180 nM.

As to `Cc1ccc(S(C)(=O)=O)cc1Nc1ccc2c(n1)N(C1CCOCC1)[C@H](C)C(=O)N2C` [Example 2, (3R)-1,3-Dimethyl-6-{[2-methyl-5-(methylsulphonyl)phenyl]amino}-4-(tetrahydro-2H-pyran-4-yl)-3,4-dihydropyrido[2,3-b]pyrazin-2(1H)-one], the results for the IC50 (in experiment [1]; with B16F10 cells; in the experiment with CHL-1 cells) were 173 nM, 319 nM and 189 nM, respectively.

In the case of `COc1ccc(S(C)(=O)=O)cc1Nc1ccc2c(n1)N(C1CCOCC1)[C@H](C)C(=O)N2C` [Example 3, (3R)-6-{[2-Methoxy-5-(methylsulphonyl)phenyl]amino}-1,3-dimethyl-4-(tetrahydro-2H-pyran-4-yl)-3,4-dihydropyrido[2,3-b]pyrazin-2(1H)-one], the IC50 in experiment [1] is 58 nM; in the experiment on B16F10 cells it was 199 nM; in the experiment with CHL-1 cells it was 127 nM.

Turning to `C[C@@H]1C(=O)N(C)c2ccc(Nc3ccc4c(c3)S(=O)(=O)CC4)nc2N1C1CCOCC1` [Example 4, (3R)-6-[(1,1-Dioxido-2,3-dihydro-1-benzothiophen-6-yl)amino]-1,3-dimethyl-4-(tetrahydro-2H-pyran-4-yl)-3,4-dihydropyrido[2,3-b]pyrazin-2(1H)-one], the figures for the IC50 (in experiment [1]; with B16F10 cells; in the experiment on CHL-1 cells) were 64 nM, 375 nM and 196 nM, respectively.

In the case of `C[C@@H]1C(=O)N(C)c2ccc(Nc3cccc(S(C)(=O)=O)c3)nc2N1C1CCCCCC1` [Example 5, (3R)-4-Cycloheptyl-1,3-dimethyl-6-{[3-(methylsulphonyl)phenyl]amino}-3,4-dihydropyrido[2,3-b]pyrazin-2(1H)-one], the results for the IC50 (in experiment [1]; with B16F10 cells; with CHL-1 cells) were 96 nM, 611 nM and 371 nM, respectively.

In the case of `C[C@@H]1C(=O)N(C)c2ccc(Nc3cccc(S(=O)(=O)C4CC4)c3)nc2N1C1CCOCC1` [Example 6, (3R)-6-{[3-(Cyclopropylsulphonyl)phenyl]amino}-1,3-dimethyl-4-(tetrahydro-2H-pyran-4-yl)-3,4-dihydropyrido[2,3-b]pyrazin-2(1H)-one], the values for the IC50 (in experiment [1]; with B16F10 cells; in the experiment on CHL-1 cells) were 40 nM, 87 nM and 46 nM, respectively.

In the case of `CC(C)S(=O)(=O)c1cccc(Nc2ccc3c(n2)N(C2CCOCC2)[C@H](C)C(=O)N3C)c1` [Example 7, (3R)-6-{[3-(Isopropylsulphonyl)phenyl]amino}-1,3-dimethyl-4-(tetrahydro-2H-pyran-4-yl)-3,4-dihydropyrido[2,3-b]pyrazin-2(1H)-one], the results for the IC50 (in experiment [1]; in the experiment on B16F10 cells; with CHL-1 cells) were 44 nM, 104 nM and 51 nM, respectively.

For `COc1ccc(S(=O)(=O)C2CC2)cc1Nc1ccc2c(n1)N(C1CCOCC1)[C@H](C)C(=O)N2C` [Example 8, (3R)-6-{[5-(Cyclopropylsulphonyl)-2-methoxyphenyl]amino}-1,3-dimethyl-4-(tetrahydro-2H-pyran-4-yl)-3,4-dihydropyrido[2,3-b]pyrazin-2(1H)-one], the IC50 in experiment [1] stood at 49 nM; in the experiment with B16F10 cells it was 37 nM; with CHL-1 cells it was 18 nM.

As for `COc1ccc(S(=O)(=O)C(C)C)cc1Nc1ccc2c(n1)N(C1CCOCC1)[C@H](C)C(=O)N2C` [Example 9, (3R)-6-{[5-(Isopropylsulphonyl)-2-methoxyphenyl]amino}-1,3-dimethyl-4-(tetrahydro-2H-pyran-4-yl)-3,4-dihydropyrido[2,3-b]pyrazin-2(1H)-one], the IC50 in experiment [1] turned out to be 53 nM; in the experiment with B16F10 cells, 34 nM; with CHL-1 cells, 19 nM.

As to `COc1ccc(S(C)(=O)=O)cc1Nc1ccc2c(n1)N(C1CCNCC1)[C@H](C)C(=O)N2C` [Example 27, (3R)-6-{[2-Methoxy-5-(methylsulphonyl)phenyl]amino}-1,3-dimethyl-4-(piperidin-4-yl)-3,4-dihydropyrido[2,3-b]pyrazin-2(1H)-one], the IC50 was determined as 83 nM in experiment [1] and 311 nM in the experiment with CHL-1 cells.

For the compound `COc1ccc(S(=O)(=O)C(C)C)cc1Nc1ccc2c(n1)N(C1CCN(CC(F)F)CC1)[C@H](C)C(=O)N2C` [Example 29, (3R)-4-[1-(2,2-Difluoroethyl)piperidin-4-yl]-6-{[5-(isopropylsulphonyl)-2-methoxyphenyl]amino}-1,3-dimethyl-3,4-dihydropyrido[2,3-b]pyrazin-2(1H)-one], the IC50 in experiment [1] came out at 67 nM; in the experiment on B16F10 cells, 40 nM.

Take `COc1ccc(S(=O)(=O)C(C)C)cc1Nc1ccc2c(n1)N(C1CCN(CCC(F)(F)F)CC1)[C@H](C)C(=O)N2C` [Example 31, (3R)-6-{[5-(Isopropylsulphonyl)-2-methoxyphenyl]amino}-1,3-dimethyl-4-[1-(3,3,3-trifluoropropyl)piperidin-4-yl]-3,4-dihydropyrido[2,3-b]pyrazin-2(1H)-one]: the results for the IC50 (in experiment [1]; in the experiment on CHL-1 cells) were 68 nM and 12 nM, respectively.

On to `COc1ccc(S(=O)(=O)C(F)(F)F)cc1Nc1ccc2c(n1)N(C1CCOCC1)[C@H](C)C(=O)N2C` [Example 39, (3R)-6-({2-Methoxy-5-[(trifluoromethyl)sulphonyl]phenyl}amino)-1,3-dimethyl-4-(tetrahydro-2H-pyran-4-yl)-3,4-dihydropyrido[2,3-b]pyrazin-2(1H)-one], for which the IC50 was found to be 56 nM in experiment [1] and 84 nM in the experiment on B16F10 cells.

`COc1cc(Nc2ccc3c(n2)N(C2CCOCC2)[C@H](C)C(=O)N3C)cc(S(C)(=O)=O)c1` [Example 40, (3R)-6-{[3-Methoxy-5-(methylsulphonyl)phenyl]amino}-1,3-dimethyl-4-(tetrahydro-2H-pyran-4-yl)-3,4-dihydropyrido[2,3-b]pyrazin-2(1H)-one]: the IC50 turned out to be 94 nM in experiment [1] and 269 nM in the experiment with B16F10 cells.

Values taken from US20170121322A1, “BET-PROTEIN INHIBITING 3,4-DIHYDROPYRIDO[2,3-B]PYRAZINONES WITH META-SUBSTITUTED AROMATIC AMINO- OR ETHER GROUPS” (Bayer Pharma Aktiengesellschaft, priority 2014, published 2017).
